The nature of data set [1]: Intrinsic clearance in dog liver microsomes. In general terms: Microsomes from liver hold many membrane-bound enzymes, among them those of drug oxidation.
The target of data set [2] is Nucleosome-remodeling factor subunit BPTF (Homo sapiens, UniProt Q12830). The data set can be described thus: Inhibition of BPTF (unknown origin) measured after 70 mins by TR-FRET assay. (In general: In TR-FRET formats the signal depends on donor and acceptor labels being close together.)
Data set [3] concerns the target T1, Bromodomain-containing protein 4 (Homo sapiens, UniProt O60885).
Description: Inhibition of His/FLAG-tagged BRD4 BD1 (unknown origin) using histone H4-TetraAcetylated-biotin peptide as substrate incubated for 20 mins by AlphaLISA assay
Data set [4] is described as follows: Volume of distribution at steady state in rat at 1 mg/kg, iv. The data set is classed as ADME, organism-based. To be noted: in vivo, read-out: Vdss.
A short description of data set [5]: Intrinsic clearance in human liver microsomes.
Data set [6] in a line: Clearance in rat at 1 mg/kg, iv. The data set is classed as ADME, organism-based. To be noted: in vivo.
Data set [7] concerns the target Bromodomain testis-specific protein (Homo sapiens, UniProt Q58F21). The data set can be described thus: Inhibition of BRDT BD1 (unknown origin) using biotinylated JQ1 analog as substrate measured after 20 mins by AlphaLISA assay. On the technique in general: Alpha assays give light when donor and acceptor beads are brought close together.
In the next data set the test system is Mus musculus. The data set can be described thus: In vivo inhibition of BET in BALB/c mouse assessed as suppression of LPS-induced IL-6 level in plasma at 15 mg/kg, po pretreated with compound followed by LPS challenge and measured after 2 hrs by ELISA. Format: functional, organism-based.
Data set [8] in a line: Clearance in rat at 1 mg/kg, iv relative to liver blood flow. Format: ADME, organism-based. To be noted: in vivo.
The nature of data set [9]: Cmax in rat at 10 mg/kg, po. The data set is classed as ADME, organism-based. Further details: route oral, dose 10 mg/kg. To be noted: in vivo.
For the next data set, the target named is T2, Peregrin (Homo sapiens, UniProt P55201).
T2 sequence (P55201 whole entry): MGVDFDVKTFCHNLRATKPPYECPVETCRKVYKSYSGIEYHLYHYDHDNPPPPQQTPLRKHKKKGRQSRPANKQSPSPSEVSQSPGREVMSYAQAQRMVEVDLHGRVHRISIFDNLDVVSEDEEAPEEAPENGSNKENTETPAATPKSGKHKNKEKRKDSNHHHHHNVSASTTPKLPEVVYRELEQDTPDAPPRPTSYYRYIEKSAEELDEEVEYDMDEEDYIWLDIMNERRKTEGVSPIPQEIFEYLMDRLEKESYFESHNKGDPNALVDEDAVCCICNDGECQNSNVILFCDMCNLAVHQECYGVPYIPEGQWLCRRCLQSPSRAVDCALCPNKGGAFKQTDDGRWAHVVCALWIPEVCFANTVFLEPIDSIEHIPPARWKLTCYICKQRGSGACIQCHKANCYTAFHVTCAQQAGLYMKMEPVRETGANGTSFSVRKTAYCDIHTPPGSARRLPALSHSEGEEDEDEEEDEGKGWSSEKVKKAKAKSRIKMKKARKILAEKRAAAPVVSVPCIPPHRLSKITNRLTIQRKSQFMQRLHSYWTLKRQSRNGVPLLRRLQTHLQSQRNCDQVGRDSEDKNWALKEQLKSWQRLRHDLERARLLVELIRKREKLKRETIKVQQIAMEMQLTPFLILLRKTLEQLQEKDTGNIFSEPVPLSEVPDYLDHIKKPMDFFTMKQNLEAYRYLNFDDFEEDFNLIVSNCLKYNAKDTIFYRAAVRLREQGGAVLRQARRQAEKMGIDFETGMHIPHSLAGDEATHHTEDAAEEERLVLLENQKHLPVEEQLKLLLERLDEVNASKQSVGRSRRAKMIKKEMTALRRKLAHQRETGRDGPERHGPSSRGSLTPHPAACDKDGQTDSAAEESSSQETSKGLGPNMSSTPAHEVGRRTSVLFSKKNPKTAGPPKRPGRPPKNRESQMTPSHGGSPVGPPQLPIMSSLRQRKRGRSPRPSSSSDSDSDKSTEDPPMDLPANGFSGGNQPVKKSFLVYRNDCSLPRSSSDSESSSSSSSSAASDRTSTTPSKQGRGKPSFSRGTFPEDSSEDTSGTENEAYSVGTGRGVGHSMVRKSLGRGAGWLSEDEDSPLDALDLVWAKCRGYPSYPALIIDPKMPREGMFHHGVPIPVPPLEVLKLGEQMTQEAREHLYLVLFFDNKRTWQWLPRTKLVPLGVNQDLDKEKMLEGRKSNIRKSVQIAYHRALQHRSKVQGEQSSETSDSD
The data set can be described thus: Inhibition of BRPF1 (unknown origin) measured after 70 mins by TR-FRET assay.

The target of data set [10] is T1, Bromodomain-containing protein 4. The data set can be described thus: Inhibition of BRD4 BD2 (unknown origin) using biotinylated JQ1 analog as substrate measured after 20 mins by AlphaLISA assay.
Data set [11] is described as follows: Protein binding in mouse plasma.
The target in data set [12] is SWI/SNF-related matrix-associated actin-dependent regulator of chromatin subfamily A member 4 (Homo sapiens, UniProt P51532). The data set can be described thus: Inhibition of His-tagged BRG1 (unknown origin) using biotinylated acetylated peptide as substrate measured after 20 mins by AlphaLISA assay.
Data set [13] has as its target Bromodomain-containing protein 2 (Homo sapiens, UniProt P25440). The data set can be described thus: Inhibition of BRD2 BD2 (unknown origin) using biotinylated JQ1 analog as substrate measured after 20 mins by AlphaLISA assay.
In the next data set the target is CREB-binding protein (Homo sapiens, UniProt Q92793). The data set can be described thus: Inhibition of His-tagged CBP (unknown origin) using biotinylated acetylated peptide as substrate measured after 20 mins by AlphaLISA assay.
The target in data set [14] is T3, Bromodomain-containing protein 9 (Homo sapiens, UniProt Q9H8M2).
T3 sequence (Q9H8M2 whole entry): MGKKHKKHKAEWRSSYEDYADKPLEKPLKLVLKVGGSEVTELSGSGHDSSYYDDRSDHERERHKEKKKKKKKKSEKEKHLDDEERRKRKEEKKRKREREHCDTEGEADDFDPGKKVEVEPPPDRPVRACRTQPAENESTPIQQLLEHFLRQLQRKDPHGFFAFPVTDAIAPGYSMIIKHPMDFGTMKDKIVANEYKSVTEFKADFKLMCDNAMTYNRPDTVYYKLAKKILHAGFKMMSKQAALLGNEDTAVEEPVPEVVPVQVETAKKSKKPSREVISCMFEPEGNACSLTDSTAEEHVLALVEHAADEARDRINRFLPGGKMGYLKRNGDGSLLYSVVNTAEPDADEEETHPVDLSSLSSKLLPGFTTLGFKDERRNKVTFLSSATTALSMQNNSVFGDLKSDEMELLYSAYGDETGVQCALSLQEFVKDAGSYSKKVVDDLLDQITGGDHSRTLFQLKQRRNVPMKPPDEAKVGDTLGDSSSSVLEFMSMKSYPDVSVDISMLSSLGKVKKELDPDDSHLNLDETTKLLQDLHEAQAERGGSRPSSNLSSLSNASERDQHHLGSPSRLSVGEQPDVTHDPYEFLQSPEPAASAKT
The data set can be described thus: Inhibition of His-tagged BRD9 (unknown origin) using biotinylated acetylated peptide as substrate measured after 20 mins by AlphaLISA assay.

Data set [15] in a line: Protein binding in human plasma. Format: ADME, cell-free. To be noted: read-out: PPB (converted).
Data set [16] can be described thus: Half life in rat at 1 mg/kg, iv. Format: ADME, organism-based. To be noted: in vivo.
Data set [17] can be described thus: Intrinsic clearance in mouse liver microsomes.
A short description of data set [18]: Protein binding in dog plasma.
Data set [19] deals with Bromodomain-containing protein 3 (Homo sapiens, UniProt Q15059). The data set can be described thus: Inhibition of BRD3 BD1 (unknown origin) using biotinylated JQ1 analog as substrate measured after 20 mins by AlphaLISA assay.
Data set [20] is described as follows: Protein binding in rat plasma. To be noted: read-out: PPB (converted). The data set is classed as ADME, cell-free.

SMILES strings stand for the structures. Active and inactive are the calls of the source. The calls are words filed in the database; no cut-off is given here.

In general, microsomal CLint refers to a measure of how fast metabolising enzymes remove a compound, apart from limits set by blood flow. A low value points to slow turnover. One may read the IC50 as the concentration that gives 50% inhibition. A high value points to lower potency. By clearance is commonly meant the rate of elimination divided by the concentration. By Cmax is commonly meant the maximum level reached in the sampled fluid or tissue. The term half-life denotes how long it takes for the measured level to halve. The low end stands for fast loss, the high end for slow loss.

Chain of Bromodomain-containing protein 3 (Q15059 whole entry): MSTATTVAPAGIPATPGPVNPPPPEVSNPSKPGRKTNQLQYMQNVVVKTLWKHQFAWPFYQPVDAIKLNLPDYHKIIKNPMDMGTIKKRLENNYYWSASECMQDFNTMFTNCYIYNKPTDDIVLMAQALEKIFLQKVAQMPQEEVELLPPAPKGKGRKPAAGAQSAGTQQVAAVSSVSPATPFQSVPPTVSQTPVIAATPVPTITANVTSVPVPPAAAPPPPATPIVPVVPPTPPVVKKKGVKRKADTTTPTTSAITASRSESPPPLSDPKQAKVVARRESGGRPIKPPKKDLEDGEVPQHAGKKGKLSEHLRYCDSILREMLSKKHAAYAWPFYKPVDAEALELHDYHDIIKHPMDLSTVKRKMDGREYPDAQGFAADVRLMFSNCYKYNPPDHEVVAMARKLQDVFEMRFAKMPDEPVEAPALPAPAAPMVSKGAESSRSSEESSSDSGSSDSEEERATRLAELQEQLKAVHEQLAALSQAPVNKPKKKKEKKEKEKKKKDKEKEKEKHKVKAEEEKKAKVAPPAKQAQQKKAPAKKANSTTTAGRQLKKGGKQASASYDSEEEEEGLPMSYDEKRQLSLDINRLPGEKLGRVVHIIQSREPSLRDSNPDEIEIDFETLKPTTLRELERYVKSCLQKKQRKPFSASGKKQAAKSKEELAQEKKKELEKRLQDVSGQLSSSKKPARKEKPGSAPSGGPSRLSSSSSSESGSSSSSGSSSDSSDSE
Chain of Bromodomain-containing protein 2 (P25440 whole entry): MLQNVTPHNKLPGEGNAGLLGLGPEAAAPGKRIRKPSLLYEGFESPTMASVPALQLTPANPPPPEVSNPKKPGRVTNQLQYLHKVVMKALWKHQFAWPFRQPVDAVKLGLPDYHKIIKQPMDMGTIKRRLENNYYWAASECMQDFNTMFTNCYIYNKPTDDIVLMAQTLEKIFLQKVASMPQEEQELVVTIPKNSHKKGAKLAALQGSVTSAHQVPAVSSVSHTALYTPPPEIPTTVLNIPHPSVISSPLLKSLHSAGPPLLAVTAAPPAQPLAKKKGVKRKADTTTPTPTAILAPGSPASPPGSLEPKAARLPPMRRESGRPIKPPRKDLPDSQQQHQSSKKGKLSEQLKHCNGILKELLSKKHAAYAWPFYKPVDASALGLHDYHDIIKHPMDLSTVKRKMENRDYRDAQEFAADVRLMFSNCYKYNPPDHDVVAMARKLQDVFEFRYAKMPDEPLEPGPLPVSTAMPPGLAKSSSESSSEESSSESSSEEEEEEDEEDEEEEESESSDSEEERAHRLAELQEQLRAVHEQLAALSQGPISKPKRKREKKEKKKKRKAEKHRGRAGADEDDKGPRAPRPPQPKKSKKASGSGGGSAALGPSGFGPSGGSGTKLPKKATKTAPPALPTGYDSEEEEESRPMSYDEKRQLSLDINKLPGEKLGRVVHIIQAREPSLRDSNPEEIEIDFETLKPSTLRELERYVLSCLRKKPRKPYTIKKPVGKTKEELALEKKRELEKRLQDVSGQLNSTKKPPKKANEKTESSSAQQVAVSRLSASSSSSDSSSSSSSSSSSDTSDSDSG
Chain of SWI/SNF-related matrix-associated actin-dependent regulator of chromatin subfamily A member 4 (P51532 whole entry): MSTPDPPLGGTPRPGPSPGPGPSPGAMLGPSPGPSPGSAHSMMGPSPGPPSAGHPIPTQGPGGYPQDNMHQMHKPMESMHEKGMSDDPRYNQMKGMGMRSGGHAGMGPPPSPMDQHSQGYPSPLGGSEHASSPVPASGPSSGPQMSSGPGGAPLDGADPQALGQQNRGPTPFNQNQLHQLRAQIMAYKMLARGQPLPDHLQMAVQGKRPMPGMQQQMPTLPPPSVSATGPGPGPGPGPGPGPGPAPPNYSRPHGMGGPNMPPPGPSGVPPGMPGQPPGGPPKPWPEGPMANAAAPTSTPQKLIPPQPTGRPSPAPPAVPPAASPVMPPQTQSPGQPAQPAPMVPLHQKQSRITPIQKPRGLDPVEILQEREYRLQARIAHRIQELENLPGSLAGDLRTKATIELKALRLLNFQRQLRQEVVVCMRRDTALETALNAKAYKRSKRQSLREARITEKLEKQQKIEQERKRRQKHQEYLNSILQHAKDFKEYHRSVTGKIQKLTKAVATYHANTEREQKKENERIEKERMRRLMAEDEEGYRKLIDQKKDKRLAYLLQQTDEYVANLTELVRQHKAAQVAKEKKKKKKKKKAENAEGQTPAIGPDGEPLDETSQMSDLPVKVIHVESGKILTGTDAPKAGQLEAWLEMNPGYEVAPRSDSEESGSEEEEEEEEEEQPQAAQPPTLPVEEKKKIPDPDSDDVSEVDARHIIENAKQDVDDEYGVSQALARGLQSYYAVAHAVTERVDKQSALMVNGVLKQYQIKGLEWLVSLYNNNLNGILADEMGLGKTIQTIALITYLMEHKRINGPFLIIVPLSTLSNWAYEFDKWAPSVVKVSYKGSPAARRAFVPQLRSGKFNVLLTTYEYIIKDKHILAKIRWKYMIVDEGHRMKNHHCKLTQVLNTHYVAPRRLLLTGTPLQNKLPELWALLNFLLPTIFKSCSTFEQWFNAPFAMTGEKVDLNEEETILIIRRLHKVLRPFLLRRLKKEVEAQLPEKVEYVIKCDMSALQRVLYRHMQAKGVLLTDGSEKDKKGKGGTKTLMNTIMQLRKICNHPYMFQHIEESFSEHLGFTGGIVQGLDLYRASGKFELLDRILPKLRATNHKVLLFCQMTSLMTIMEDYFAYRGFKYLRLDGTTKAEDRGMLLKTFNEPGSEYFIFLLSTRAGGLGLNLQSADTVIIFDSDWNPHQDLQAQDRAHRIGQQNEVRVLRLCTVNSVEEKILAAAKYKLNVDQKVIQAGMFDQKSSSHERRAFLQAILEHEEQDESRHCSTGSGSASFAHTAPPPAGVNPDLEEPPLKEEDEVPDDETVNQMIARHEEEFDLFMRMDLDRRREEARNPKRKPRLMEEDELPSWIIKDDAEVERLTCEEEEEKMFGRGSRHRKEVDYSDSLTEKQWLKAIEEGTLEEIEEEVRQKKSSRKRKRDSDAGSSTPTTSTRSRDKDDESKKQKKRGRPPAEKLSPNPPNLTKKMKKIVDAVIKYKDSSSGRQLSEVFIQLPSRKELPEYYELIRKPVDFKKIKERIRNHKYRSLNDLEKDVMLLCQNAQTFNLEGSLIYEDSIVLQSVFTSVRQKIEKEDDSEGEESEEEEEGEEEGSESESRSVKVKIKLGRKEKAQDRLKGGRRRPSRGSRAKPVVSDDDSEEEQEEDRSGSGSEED

Consider `Cc1nnc2n1-c1ccc(-c3ccc(N)nc3)cc1N(c1ccc(Cl)cc1)C[C@H]2C`, for which the microsomal CLint in [1] turned out to be 19 µL/min/mg; in data set [5] it was 5.1 µL/min/mg; in data set [17] it was 16 µL/min/mg. Moreover, the IC50 in [2] is over 15000 nM; in data set [3], 15 nM; in data set [7] it was 3 nM; against Peregrin, over 15000 nM; in [10], 3 nM; in [12], over 15000 nM. Moreover, the IC50 in data set [13] was 3 nM; at CREB-binding protein it was 2200 nM; in [14] it was over 15000 nM; in data set [19], 3 nM. Besides, the Vd in data set [4] worked out at 2.2 L/kg. In addition, in [6], the clearance was 63.3 mL/min/kg. Moreover, the inhibition entry with Mus musculus was “Active”. The CL in data set [8] was determined as 90%. In data set [9], this compound had a Cmax of 290 nM. In addition, the fraction unbound in [11] was 0.02; in [15], 0.02; in data set [18], 0.04; in [20] it was 0.04. In addition, in data set [16], the half-life is 40.2 min.

These data come from ChEMBL document CHEMBL4715706, “Discovery of Benzotriazolo[4,3-d][1,4]diazepines as Orally Active Inhibitors of BET Bromodomains” (ACS Med Chem Lett, 2016).
